Target: BMAL1 (Homo sapiens, UniProt O00327)
Parameters: PASB domain (residues 338–449); Protein thermal shift (PTS) fragment screen on recombinant human BMAL1(PASB), shift of melting temperature
Conditions: dTmB; binder

Chain of BMAL1 (O00327 338-449): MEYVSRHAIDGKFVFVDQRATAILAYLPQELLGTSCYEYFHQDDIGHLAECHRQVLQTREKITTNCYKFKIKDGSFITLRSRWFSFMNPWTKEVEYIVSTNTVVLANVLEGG

Row | Compound | Bmal1(PASB) dTmB
1 | CC(=O)N1CCN(c2ccc(O)cc2)CC1 [Prestw-Frag-2047, Compound 27] | -2.09 °C
2 | O=C(O)C1(c2ccccc2)CCCC1 [Prestw-Frag-2049, Compound 104] | -0.56 °C
3 | NS(=O)(=O)c1cc(C(=O)O)ccc1Cl [Prestw-Frag-2051, Compound 160] | 0.10 °C
4 | O=C(O)c1ccccc1NCc1ccco1 [Prestw-Frag-2052, Compound 70] | -0.26 °C
5 | NC1CCN(Cc2ccccc2)CC1 [Prestw-Frag-2060, Compound 207] | -0.05 °C
6 | NCCc1ccc(O)cc1 [Prestw-Frag-2070, Compound 299] | -0.26 °C
7 | Nc1cccnn1 [Prestw-Frag-2072, Compound 233] | -0.18 °C
8 | Cc1cc(C2CCCCC2)n(O)c(=O)c1 [Prestw-Frag-2092, Compound 58] | -1.46 °C
9 | CN(C)C(c1ccccc1)c1ccccc1 [Prestw-Frag-2100, Compound 331] | -1.24 °C
10 | COc1ccc(C(F)(F)F)cc1 [Prestw-Frag-2108, Compound 203] | -0.12 °C
11 | NC(N)=NCc1cccc(I)c1 [Prestw-Frag-2111, Compound 312] | -0.90 °C
12 | COc1ccc2nc(SC)[nH]c2c1 [Prestw-Frag-2118, Compound 167] | 1.19 °C
13 | NS(=O)(=O)c1ccc(C(=O)O)cc1 [Prestw-Frag-2123, Compound 82] | -0.15 °C
14 | Cc1cc(=O)[nH]c(=S)[nH]1 [Prestw-Frag-2127, Compound 68] | -0.75 °C
15 | NC(=O)c1ccccn1 [Prestw-Frag-2131, Compound 358] | -0.11 °C
16 | Cc1nc2ccccc2[nH]1 [Prestw-Frag-2136, Compound 408] | -0.37 °C
17 | O=C(O)Cc1cccs1 [Prestw-Frag-2140, Compound 161] | -0.19 °C
18 | O=C1OCc2ccccc21 [Prestw-Frag-2144, Compound 404] | -0.23 °C
19 | O=C(CCc1ccccc1)c1ccccc1O [Prestw-Frag-2152, Compound 434] | -0.33 °C
20 | CC(C)NCC(O)c1ccccc1 (stereo not shown) [Prestw-Frag-2168, Compound 193] | -0.58 °C
21 | O=C1CNS(=O)(=O)c2ccsc21 [Prestw-Frag-2176, Compound 30] | -4.81 °C
22 | Cc1c(C)c2c(c(C)c1O)CCC(C)(C)O2 [Prestw-Frag-2185, Compound 438] | 1.30 °C

Row | Compound | Bmal1(PASB) dTmB
23 | COc1cc2c(cc1OC)C(C)NCC2 (stereo not shown) [Prestw-Frag-2193, Compound 348] | -0.74 °C
24 | CCOc1ccc(N)cc1 [Prestw-Frag-2201, Compound 146] | -0.64 °C
25 | COc1ccc(OC)c(C(C)O)c1 (stereo not shown) [Prestw-Frag-2208, Compound 283] | -0.43 °C
26 | COc1ccc(CN2CCNCC2)cc1 [Prestw-Frag-2212, Compound 304] | -0.50 °C
27 | c1ccc(CN2CCNCC2)cc1 [Prestw-Frag-2215, Compound 424] | -0.38 °C
28 | O=C(Cc1ccccc1)c1ccccc1 [Prestw-Frag-2219, Compound 440] | -0.71 °C
29 | OCC(O)COc1ccc(Cl)cc1 (stereo not shown) [Prestw-Frag-2229, Compound 393] | 0.07 °C
30 | CS(=O)(=O)c1ccc(CO)cc1 [Prestw-Frag-2234, Compound 220] | -0.40 °C
31 | CC(O)(c1ccccc1)c1ccccc1 [Prestw-Frag-2235, Compound 444] | -1.59 °C
32 | CC(O)(c1ccccc1)c1ccccn1 (stereo not shown) [Prestw-Frag-2237, Compound 355] | -0.76 °C
33 | OC(c1ccccc1)c1ccccn1 (stereo not shown) [Prestw-Frag-2238, Compound 262] | -0.66 °C
34 | CC(=O)c1ccc2c(c1)Nc1ccccc1S2 [Prestw-Frag-2239, Compound 65] | 0.31 °C
35 | CCCCOc1cc(C(=O)OC)ccc1N [Prestw-Frag-2253, Compound 206] | -0.90 °C
36 | Nc1nc2ccccc2o1 [Prestw-Frag-2256, Compound 309] | -0.33 °C
37 | NC(=O)c1[nH]cnc1N [Prestw-Frag-2268, Compound 14] | -0.68 °C
38 | c1ccc2c(c1)OCO2 [Prestw-Frag-2299, Compound 175] | -0.52 °C
39 | OCc1ccncc1 [Prestw-Frag-2303, Compound 179] | -0.35 °C
40 | OCc1cccnc1 [Prestw-Frag-2304, Compound 272] | -0.06 °C
41 | Cc1cccc(C)c1N [Prestw-Frag-2313, Compound 365] | -0.18 °C
42 | COc1cc(NS(=O)(=O)c2ccc(N)cc2)ncn1 [Prestw-Frag-2337, Compound 376] | 0.09 °C
43 | COC(=O)c1ccc(N)cc1 [Prestw-Frag-2346, Compound 380] | -0.11 °C
44 | N=C(N)CSCc1ccccc1 [Prestw-Frag-2348, Compound 201] | 0.25 °C

Row | Compound | Bmal1(PASB) dTmB
45 | O=C(O)c1cc(=O)c2ccccc2o1 [Prestw-Frag-2352, Compound 352] | -0.25 °C
46 | Clc1ccc(CNc2ccccn2)cc1 [Prestw-Frag-2356, Compound 344] | -0.84 °C
47 | O=C1c2ccccc2CN1c1ccccc1 [Prestw-Frag-2360, Compound 56] | -0.56 °C
48 | NC(=O)C(c1ccccc1)c1ccccc1 [Prestw-Frag-2366, Compound 415] | -0.76 °C
49 | S=c1[nH]cc[nH]1 [Prestw-Frag-2373, Compound 253] | -1.25 °C
50 | O=C(O)CCC(=O)Nc1ccccc1 [Prestw-Frag-2383, Compound 124] | -0.33 °C
51 | O=C(C1COc2ccccc2O1)N1CCNCC1 (stereo not shown) [Prestw-Frag-2389, Compound 381] | -0.24 °C
52 | N#Cc1ccc[nH]c1=O [Prestw-Frag-2408, Compound 346] | -0.07 °C
53 | Cn1ccccc1=O [Prestw-Frag-2410, Compound 227] | -0.12 °C
54 | COC(=O)C(O)c1ccccc1 (stereo not shown) [Prestw-Frag-2423, Compound 176] | 0.02 °C
55 | CCN(CCCCO)C(C)Cc1ccc(OC)cc1 (stereo not shown) [Prestw-Frag-2440, Compound 249] | -0.23 °C
56 | Nc1ccccn1 [Prestw-Frag-2443, Compound 228] | 0.09 °C
57 | COCCOC(=O)c1ccc(N)cc1 [Prestw-Frag-2453, Compound 317] | -0.58 °C
58 | O=C1CCc2ccccc2N1 [Prestw-Frag-2464, Compound 16] | -2.13 °C
59 | Nc1ccccc1S(N)(=O)=O [Prestw-Frag-2473, Compound 242] | 0.04 °C
60 | CCOc1ccccn1 [Prestw-Frag-2477, Compound 94] | -0.05 °C
61 | COC(=O)C(O)(c1ccccc1)C1CCCC1 (stereo not shown) [Prestw-Frag-2484, Compound 442] | -1.34 °C
62 | CC(=O)N(CCC(=O)O)c1ccccc1 [Prestw-Frag-2487, Compound 222] | 0.04 °C
63 | c1ccc2cnccc2c1 [Prestw-Frag-2493, Compound 131] | -0.12 °C
64 | COc1ccc(O)cc1O [Prestw-Frag-2499, Compound 11] | 0.28 °C
65 | c1cnccn1 [Prestw-Frag-2501, Compound 209] | 0.00 °C
66 | CC(=O)c1ccc(O)cc1O [Prestw-Frag-2506, Compound 162] | 0.21 °C

Row | Compound | Bmal1(PASB) dTmB
67 | OCc1ccc(O)cc1 [Prestw-Frag-2532, Compound 453] | -0.16 °C
68 | c1ccc(C2CCNCC2)cc1 [Prestw-Frag-2537, Compound 310] | -0.53 °C
69 | S=c1[nH]c2ccccc2[nH]1 [Prestw-Frag-2539, Compound 1] | 6.28 °C
70 | O=C(O)c1cccnc1 [Prestw-Frag-2541, Compound 64] | -0.10 °C
71 | O=c1[nH]snc1N1CCOCC1 [Prestw-Frag-2562, Compound 37] | -0.14 °C
72 | ClC1(Cl)CC1c1ccccc1 (stereo not shown) [Prestw-Frag-2566, Compound 328] | 0.06 °C
73 | O=C(O)CNC(=O)c1ccccc1 [Prestw-Frag-2576, Compound 196] | 0.18 °C
74 | O=C(O)COc1ccccc1 [Prestw-Frag-2577, Compound 147] | 0.25 °C
75 | NC(=O)COc1ccccc1 [Prestw-Frag-2578, Compound 235] | -0.19 °C
76 | O=C(O)Cc1ccccc1 [Prestw-Frag-2579, Compound 132] | -0.05 °C
77 | NC(=O)Cc1ccccc1 [Prestw-Frag-2580, Compound 73] | -0.74 °C
78 | NC(=O)c1ccncc1 [Prestw-Frag-2587, Compound 181] | 0.25 °C
79 | Oc1cccc2cccnc12 [Prestw-Frag-2592, Compound 119] | -0.26 °C
80 | Clc1cccc2ncccc12 [Prestw-Frag-2593, Compound 66] | -0.75 °C
81 | OC1c2ccccc2CCc2ccccc21 [Prestw-Frag-2600, Compound 464] | -1.43 °C
82 | c1ccc(CCn2ccnc2)cc1 [Prestw-Frag-2608, Compound 366] | -0.49 °C
83 | c1ccc(Cn2ccnc2)cc1 [Prestw-Frag-2620, Compound 329] | -0.49 °C
84 | c1ccc(C(c2ccccc2)n2cncn2)cc1 [Prestw-Frag-2645, Compound 443] | -2.46 °C
85 | N#CC1(c2ccc(F)cc2)CCCCC1 [Prestw-Frag-2647, Compound 433] | -0.64 °C
86 | CC1(c2ccccc2)NC(=O)NC1=O (stereo not shown) [Prestw-Frag-2652, Compound 273] | -0.17 °C
87 | Cc1ccc(C#N)c(=O)[nH]1 [Prestw-Frag-2669, Compound 177] | -0.34 °C
88 | O=C1CCCc2[nH]ccc21 [Prestw-Frag-2675, Compound 219] | 0.11 °C
